{"source": "patent US7906520B2", "about": "“Methods for treating pain” (The General Hospital Corporation, priority 2003, dated 2011)", "key": {"[1]": {"system": "SNI model, nNOS knockout mice", "experiment": "SNI model in nNOS knockout and wild-type mice", "format": "in vivo", "details": "mechanical or cold stimuli", "procedure": "In this figure, closed circles represent nNOS knockout mice with DAHP; open circles, nNOS knock out mice with vehicle; closed triangles, wild type mice with DAHP; and open triangles, wild type mice with vehicle. […] In this figure, closed triangles represent L-NAME administration; open circles, L-NAME+DAHP administration; closed circles, DAHP administration; and open triangles, vehicle administration. L-NAME was administered at 25 mg/kg, i.p., single dose, and DAHP was administered at 120 mg/kg, i.p., single dose. The antinociceptive efficacy of this high L-NAME dose is weaker (about 50%) than that of a moderate dose of DAHP."}, "[2]": {"system": "CFA-induced paw inflammation", "experiment": "CFA model of inflammatory pain: Hargreaves test and paw weight", "format": "in vivo, rat", "procedure": "FIGS. 11A-11E are a series of graphs showing the effect of DHAP on thermal hyperalgesia in the CFA model which is a model for inflammatory pain. […] On the left end of the graph, two doses of DAHP (180 mg/kg i.p.) were injected, the first 30 minutes before injection of CFA into the hindpaw, the second 4 hours after CFA (indicated with arrows D1 and D2). On the right, a single dose (dotted arrow D1) of DAHP (180 mg/kg i.p.) was injected 24 h after induction of paw inflammation without any treatment during the first 24 h following CFA injection. […] In FIGS. 11C-11D, the effects of systemically administered DAHP (180 mg/kg i.p. single dose; 11C) are compared with the effects of a single intrathecal dose (1 mg/kg i.t.; 11D) which was administered via a lumbar spinal catheter. In both cases, treatment was started 24 hours after CFA injection into the hindpaw. Because of slightly different baseline levels (11C compared with 11D) effects of DAHP after i.p. and i.t. treatment are additionally presented as percentage change of paw withdrawal latency (FIG. 11E) to allow for a direct comparison of both routes of administration.\nFIG. 12 is a bar graph showing the increase of the paw weight of the inflamed paw compared with the contralateral paw. Paw weight was determined 48 hours following CFA injection. The increase of the paw weight is a measure for the inflammatory paw edema and therefore allows assessment of paw inflammation.\nFIGS. 15A and 15B show the effect of the sepiapterin reductase inhibitor, N-acetyl-serotonin (NAS) on thermal hyperalgesia in the CFA model. The paw withdrawal latency (PWL) to radiant heat (Hargreaves test) is a measure for the heat sensitivity. NAS treatment (single dose of 50 mg/kg i.p.) was started 24 hours after CFA injection into the hindpaw. Data are presented as percentage change of the PWL compared with the PWL of the non-inflamed contralateral paw. […] Paw weight was determined 48 hours following CFA injection. The increase of the paw weight is a measure for the inflammatory paw edema.\nHypersensitivity was induced using the CFA model of paw inflammation. In these experiments, BH4 was injected at time “zero” after measurement of baseline paw withdrawal latency."}, "[3]": {"system": "SNI model of neuropathic pain", "experiment": "Spared nerve injury (SNI) model of neuropathic pain, von Frey and acetone tests", "format": "in vivo", "procedure": "FIGS. 8A-8D represent a series of graphs showing the effect of DAHP on nociceptive behavior in the SNI model of neuropathic pain. Figures on the left show the threshold to mechanical stimuli applied with von Frey hairs (von Frey threshold). Figures on the right show the duration of paw licking, shaking and lifting following acetone application to the paw as a measure for cold allodynia. In FIG. 8A, rats were treated with DAHP (180 mg/kg/d i.p.) for three days starting three days after surgery (early treatment). Nociceptive behavior was assessed daily before and after drug injection. In FIG. 8B, the treatment period was extended to five days (180 mg/kg/d i.p.) starting three days after surgery and pain behavior was assessed daily before and after drug injection and once every second day for an additional week after stopping the daily drug injections. In FIG. 8C, treatment with DAHP (180 mg/kg/d i.p. for 5 days) was started 17 days after surgery i.e. in the chronic phase without any treatment in the early phase. Nociceptive behavior was assessed once daily 3 h after drug injection. In FIG. 8D, animals received a continuous spinal infusion of DAHP (6 mg/kg/d) for 14 days. The infusion was started directly after surgery. Nociceptive behavior was assessed once daily.\nFIGS. 16A-16D show the effects of systemic (16A) and intrathecal (16B) treatment with methotrexate (MTX) on the nociceptive behavior in the SNI model of neuropathic pain. […] In FIG. 16A MTX (0.2 mg/kg/d) was injected i.p. once daily starting 5 days after SNI surgery. Nociceptive behavior was assessed once daily three hours after drug injection. In FIG. 16B, MTX was administered as continuous intrathecal infusion (0.1 mg/kg/d for 14 days) starting right after SNI surgery. Nociceptive behavior was assessed once daily. FIGS. 16C and 16D show the body weight gain of animals during systemic (16C) and intrathecal (16D) MTX treatment. Determination of the weight gain was used to assess general well-being and potential toxic effects of MTX.\nIn this graph, closed triangles represent vehicle, i.p.; open triangles represent DAHP at 90 mg/kg/day, i.p.; open squares represent DAHP at 180 mg/kg/day, i.p.; and open circles represent DAHP at 270 mg/kg/day, i.p.\nAll procedures were performed in accordance with Massachusetts General Hospital animal care regulations. Adult male Sprague Dawley rats (200-300 g) were anesthetized with halothane. For the sciatic nerve transection (axotomy), the left sciatic nerve was exposed at the mid thigh level, ligated with 3/0 silk, and sectioned distally. The wound was sutured in two layers, and the animals were allowed to recover. For SNI the tibial and peroneal branch of the sciatic nerve were ligated and transected whereas the sural nerve was spared. For CCI, the sciatic nerve was loosely ligated with dexon 4/0 (three ligatures) and for the spinal ligation model the L5 spinal segmental nerve was ligated."}, "[4]": {"experiment": "DAHP pharmacokinetics in plasma and CSF", "format": "in vivo, rat", "details": "single dose 180 mg/kg i.p.", "procedure": "FIGS. 14A-14C represent a series of graphs showing pharmacokinetic features of DAHP and the pharmacokinetic-pharmacodynamic relationship. […] In addition, concentrations of DAHP in cerebrospinal fluid (CSF) were determined at an early and late time point. In FIG. 14B, plasma concentrations were fitted according to a one-compartment PK model with first order input and first order elimination. PK parameters are presented where Cmax is the maximum concentration, tmax the time of the maximum concentration, k01 is the absorption rate constant, t1/2abs. represents the absorption half-life, k10 is the elimination rate constant, t1/2 el is the elimination half-life, and Cl is the clearance. In FIG. 14C, pooled plasma concentration and effect data of the CFA model were used to assess the PK/PD relationship employing a standard sigmoidal Emax model."}, "[5]": {"details": "DAHP 6 mg/kg/day continuous intrathecal infusion"}, "[6]": {"details": "DAHP 180 mg/kg/day i.p., started 3 or 17 days post-surgery, vs vehicle"}}, "data": [{"smiles": "Nc1cc(O)nc(N)n1", "note": "[DAHP, 2,4-Diamino-6-hydroxypyrimidine]", "values": [{"measurement": "anti-nociceptive effects in nNOS knockout vs wild-type mice", "setting": "[1]", "value": "do not differ between nNOS knockout mice and wild-type mice"}, {"measurement": "thermal hyperalgesia", "setting": "[2]; DAHP 1 mg/kg i.t. via lumbar spinal catheter", "value": "reduced thermal hyperalgesia"}, {"measurement": "paw withdrawal latency of the non-inflamed contralateral paw", "setting": "[2]; DAHP 180 mg/kg i.p.", "value": "no effect"}, {"measurement": "thermal hyperalgesia", "setting": "[2]; DAHP 180 mg/kg i.p., 30 min before or 24 h after CFA", "value": "reduced thermal hyperalgesia"}, {"measurement": "inflammatory paw edema (paw weight)", "setting": "[2]; DAHP treated vs control, 48 hours after CFA", "value": "no difference in the degree of paw inflammation"}, {"measurement": "cold allodynia", "setting": "[3]; [5]", "value": "reduced"}, {"measurement": "mechanical allodynia", "setting": "[3]; [5]", "value": "reduced"}, {"measurement": "cold pain (cold allodynia, acetone)", "setting": "[3]; [6]", "value": "reduction"}, {"measurement": "mechanical sensitivity (von Frey threshold)", "setting": "[3]; [6]", "value": "reduction in mechanical sensitivity"}, {"measurement": "dose-effect relationship, nociceptive response to mechanical or cold stimuli", "setting": "[3]; DAHP 90, 180, 270 mg/kg/day i.p.", "value": "dose-dependent relationship"}, {"measurement": "distribution in cerebrospinal fluid", "setting": "[4]", "value": "rapid distribution in the cerebrospinal fluid"}, {"measurement": "plasma concentration after i.p. injection", "setting": "[4]", "value": "rapidly increased"}]}]}
